Values of other authors, collected in US10272077B2, “Piperidinone carboxamide azaindane CGRP receptor antagonists” (Merck Sharp & Dohme Corp., priority 2010, dated 2019).
Ends that are not written are not given here.

Experiments:
[1] = rats, prior administration (Williamson et al. 1997)
[2] = rat (Escott et al. 1995)
[3] = control group (Petersen et al. 2005)
[4] = marmoset (Doods et al. 2000)

For “CGRP(8-37) (VTHRLAGLLSRSGGVVKNNFVPTNVGSKAF; ends and bridges not checked; UniProt P06881 90-119, looked up, fragment) [a peptide CGRP receptor antagonist]”, the “effect on increase of middle meningeal artery diameter” value [1] is given as “blocked” and the “effect on increased facial blood flow” value [2] is given as “inhibited”.
For O=C(N[C@@H]1CC[C@@H](c2cccc(F)c2F)CN(CC(F)(F)F)C1=O)N1CCC(n2c(=O)[nH]c3ncccc32)CC1 [telcagepant], the antimigraine effectiveness (phase III clinical trials, orally bioavailable) is listed as “shown antimigraine effectiveness”.
For NCCCC[C@H](NC(=O)[C@@H](Cc1cc(Br)c(O)c(Br)c1)NC(=O)N1CCC(N2Cc3ccccc3NC2=O)CC1)C(=O)N1CCN(c2ccncc2)CC1 [BIBN4096BS], the “treatment of acute attacks of migraine” value (clinical trials (Olesen et al. 2004)) is given as “effective in treating acute attacks of migraine”, the “prevention of headache induced by CGRP infusion” value [3] is given as “able to prevent headache induced by CGRP infusion” and the “effect on increase in facial blood flow” value [4] is given as “could be blocked”.
